Measured values from PubChem BioAssay (NCI).
Several values for one entry are separate records, joined by “and”; a condition that tells them apart may be missing. Equal entries are not always repeated.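 Five compound concentrations were applied to cells in 96-well plates for 48 hours; endpoints were derived by simple linear interpolation of the resulting dose-response curve. Here, GI50 denotes the concentration required for 50% inhibition of growth. TGI: concentration producing complete growth inhibition.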

Key:
Assay in all cases: inhibition of tumour cell growth, NCI panel, 48 h
SK-OV-3 ovarian = tested on: SK-OV-3 ovarian
MDA-MB-231 breast = tested on: MDA-MB-231 breast
786-0 renal = tested on: 786-0 renal
BT-549 breast = tested on: BT-549 breast
PC-3 prostate = tested on: PC-3 prostate

| SMILES | GI50 (SK-OV-3 ovarian) | TGI (SK-OV-3 ovarian) | GI50 (MDA-MB-231 breast) | TGI (MDA-MB-231 breast) [µM] | GI50 (786-0 renal) | TGI (786-0 renal) [µM] | GI50 (BT-549 breast) | TGI (BT-549 breast) [µM] | GI50 (PC-3 prostate) [µM] | TGI (PC-3 prostate) [µM] |
| --- | --- | --- | --- | --- | --- | --- | --- | --- | --- | --- |
| O=C(NO)c1ccc(CN(c2cnccn2)c2cnccn2)cc1 | 14.6 µM | 29.5 µM | 22.3 µM | 63.4 | 15.7 µM | 35 | 13.8 µM | 29.9 | 11.7 | 31.4 |
| COc1ccc(Cc2cnc(NC(=O)c3ccc4c(c3)OCCO4)s2)cc1 | 0.0321 µM | > 100 µM | 0.0379 µM | 22.6 | 0.0493 µM | > 74.3 | 0.0357 µM | > 49.5 | 0.0303 | > 100 |
| CCCCCCCCCCN1CCC(N2CCCCC2)CC1 | 2.77 µM | 8.31 µM | 1.3 µM | 3.26 | 2.82 µM | 15.9 | 3.62 µM | 16.1 | 2 | 13 |
| COc1ccc(/C=C(/c2ccccc2)[N+](=O)[O-])cc1 | 2.59 µM | 6.91 µM | 1.59 µM | 3.09 | 1.58 µM | 2.96 | 1.42 µM | 2.88 | 1.46 | 3.21 |
| COc1ccc2c3c(Nc4ccc(/C(C)=N/O)cc4)[nH]c4ccccc4c-3c(N=O)c2c1 | – | – | 4.8 µM | 24.3 | 13.4 µM | 28.2 | 3.98 µM | 23.1 | 1.52 | 3.2 |
| Cc1ncc([N+](=O)[O-])n1CCNS(=O)(=O)CCCn1ncnc1[N+](=O)[O-] | – | > 100 µM | – | > 100 | – | > 100 | – | > 100 | – | > 100 |
| O=[N+]([O-])c1ccc(CSCc2ccc(Cl)cc2)cc1 | – | > 100 µM | – | > 100 | – | > 100 | – | > 100 | – | > 100 |
| C/C(=N\NC(=S)N1CC2CCC(CC2)C1)c1ccccn1 | 0.0465 µM | 1.01 µM | 0.156 µM | 2.45 | 0.152 µM | 1.46 | 0.135 µM | 1.84 | 0.026 | 1.75 |
| CC(O)CC(O)(C(F)(F)F)C(F)(F)F (configuration not stated) | – | > 10 µM | – | > 10 | – | > 10 | – | – | – | > 10 |
| C[C@]12CC[C@@H]3c4ccc(O)c([N+](=O)[O-])c4CC[C@H]3[C@@H]1CC[C@@H]2NS(=O)(=O)c1cccc(Br)c1 | 2.94 µM | 7.53 µM | 1.85 µM | 4.14 | 2.7 µM | 7.5 | 1.91 µM | 3.93 | 2.56 | 11.1 |
| Clc1ccc(N=CNc2ccc(-c3nc4ccccc4o3)cc2)cc1 | 28.6 µM | > 100 µM | 25.6 µM | 89.4 | 34.6 µM | > 100 | 18.7 µM | 43.6 | 41.7 | > 100 |
| O=c1[nH]c(=O)n([C@H]2CCCO2)cc1F | > 3620 µM | 984 µM and > 5000 µM | – | > 5000 | 1780 µM | > 5000 | – | > 5000 | – | > 5000 |
| O=C(NCc1ccc(S(=O)(=O)c2cc(F)cc(F)c2)cc1)c1ccc2nccn2c1 | 17.1 µM | 60.6 µM | 20 µM | > 100 | 30.7 µM | > 100 | 0.296 µM | 12.1 | – | > 100 |
| COC(=O)CCC1=C(CC(=O)OC)C(C)=N/C1=C\c1[nH]c(-c2ccc[nH]2)cc1OC | 13.3 µM | 28.4 µM | 2.37 µM | 11.6 | 2.73 µM | 10.2 | 6.49 µM | 21.6 | 5.32 | 22.6 |
| CCCCCCCCCCCCOC1C(C(CC(=O)NCCN2CCCC2)NS(=O)(=O)c2cc(Cl)cc(Cl)c2)OC2OC(C)(C)OC21 (configuration not stated) | 2.08 µM and 1.32 µM | 3.79 µM and 2.73 µM | 1.81 µM | 3.23 | 1.68 µM | 3.27 | 1.79 µM | 3.24 | 1.64 | 3.02 |
| O=C(N/N=C/c1ccc([N+](=O)[O-])o1)c1ccc(O)cc1 | 17.5 µM | > 100 µM | 10.8 µM | > 100 | 9.17 µM | 21.4 | 10.7 µM | 28 | 27 | > 100 |
| Cc1cc(C)n(-c2nnc3n2N=C(c2ccc(-c4ccccc4)cc2)CS3)n1 | 3.79 µM | > 100 µM | 3.22 µM | > 100 | 3.95 µM | > 100 | 3.69 µM | > 100 | 3.15 | > 100 |
| CO/N=C(/C)c1cccc(Nc2cc(-c3ccccc3)nc3ccc(OC)cc23)c1 | 29.2 µM | 72 µM | 3.49 µM | 17.8 | 3.18 µM | 13.3 | 22.4 µM | 46.6 | 4.68 | 21.6 |

| SMILES | GI50 (SK-OV-3 ovarian) | TGI (SK-OV-3 ovarian) | GI50 (MDA-MB-231 breast) | TGI (MDA-MB-231 breast) [µM] | GI50 (786-0 renal) | TGI (786-0 renal) [µM] | GI50 (BT-549 breast) | TGI (BT-549 breast) [µM] | GI50 (PC-3 prostate) [µM] | TGI (PC-3 prostate) [µM] |
| --- | --- | --- | --- | --- | --- | --- | --- | --- | --- | --- |
| CC/C=C/C/C=C/C/C=C/C/C=C/C/C=C/C/C=C/CCC(=O)Nc1ccn([C@@H]2O[C@H](CO)[C@@H](O)C2(F)F)c(=O)n1 | 0.14 µM | > 52.2 µM | 7.65 µM | 28.9 | 0.0141 µM | 25.5 | 0.681 µM | 19.8 | 6.65 | 52.3 |
| COC(=O)c1cc(/C=C/c2ccc(S(N)(=O)=O)cc2)ccc1O | > 100 µM | > 100 µM | 24.9 µM | 60.5 | 7.35 µM | > 100 | 16.3 µM | 56.2 | 30.7 | > 100 |
| CC[C@@]1(O)C(=O)OCc2c1cc1n(c2=O)Cc2c-1nc1cc(F)c(C)c3c1c2[C@@H](N)CC3 | < 0.01 µM | 1.41 µM | 0.162 µM | > 100 | < 0.01 µM | – | < 0.01 µM | 0.199 | 0.02 | > 100 |
| Clc1cc(Cl)cc(Nc2ccc3cc(OCCCN4CCOCC4)ccc3n2)c1 | 2.62 µM | 7.24 µM | 1.81 µM | 4.27 | 1.58 µM | 3.11 | 2.65 µM | 9.44 | – | – |
| Cc1ccc(S(=O)(=O)NC(=O)NC2=NC(C)(C)N(c3ccc(Cl)c(Cl)c3)C(N)=N2)cc1 | – | > 100 µM | – | > 100 | – | > 100 | – | > 100 | – | > 100 |
| COCOc1ccc(C2(O)Oc3cc(OCOC)ccc3C2C)c(O)c1 (configuration not stated) | – | 31.8 µM | – | 25.3 | – | 31.6 | – | 28.2 | – | 26.3 |
| Cc1ccc(Nc2nnc(-c3ccc4c(c3)OCO4)o2)c(C)c1 | – | > 100 µM | – | > 100 | – | > 100 | – | > 100 | – | > 100 |
| O=C1CSC(c2ccc(-c3nc4ccccc4s3)cc2)=N1 | 53.2 µM | > 100 µM | 24.1 µM | > 100 | 77.2 µM | > 100 | 36.2 µM | 76.8 | > 100 | > 100 |
| O=C1C(Cl)=C(Nc2ccccc2O)C(=O)N1Cc1ccccc1 | 28.5 µM | 71.9 µM | – | – | 16.8 µM | 30.4 | – | – | 18.1 | 39.1 |
| CCN(CC)c1cc2oc3cc(N)cc(=N)c-3nc2cc1C | 22.2 µM | > 100 µM | 6.04 µM | > 100 | 11.2 µM | 70.1 | 10.6 µM | 27.4 | 1.73 | > 100 |
| CCCCCc1ccc(S(=O)(=O)Nc2cc(-c3csc(NC(C)=O)n3)ccc2N2CCN(C)CC2)cc1 | 5.95 µM | 11.5 µM | 4.75 µM | 9.91 | 4.9 µM | 11.1 | 4.98 µM | 10.1 | 2.23 | 7.72 |
| Nc1nc(N)nc(CCCc2nc(N)nc(N)n2)n1 | – | > 100 µM | – | > 100 | – | > 100 | – | > 100 | – | > 100 |
| O=C(OCC(OC(=O)c1ccccc1)C(OC(=O)c1ccccc1)C(OC(=O)c1ccccc1)c1cnn(-c2ccccc2)n1)c1ccccc1 (configuration not stated) | – | > 100 µM | – | – | – | > 100 | – | > 100 | – | – |
| NC(=S)N/N=C/c1cc(-c2cccc(N)c2)ccn1 | 3.29 µM | > 93.8 µM | 3.6 µM | > 100 | 1.29 µM | 6.34 | 3.52 µM | > 100 | 1.07 | > 100 |
| CC1C(=O)OC2CC[N+]3([O-])CC=C(COC(=O)C(C)(O)C1(C)O)C23 (configuration not stated) | – | > 100 µM | – | > 100 | – | > 100 | – | > 100 | – | > 100 |
| N#Cc1ccc(OC(=O)Nc2ccc(Cl)c(Cl)c2)cc1 | 5.98 µM | 51.2 µM | 4.42 µM | 23.3 | 4.83 µM | 61.2 | 9.93 µM | 44.2 | 2.87 | 21.6 |
| C=CCN1CC2CON(C(=O)C(OC)(c3ccccc3)C(F)(F)F)C2C1C(C)C (configuration not stated) | 40.2 µg/mL | – | 41.4 µg/mL | – | 26.7 µg/mL | – | 30.1 µg/mL | – | – | – |
| CCOC(CN(C)C(=S)Nc1cccc2ccccc12)OCC | – | > 10 µM | – | > 10 | – | > 10 | – | – | – | > 10 |
